Results published in ChEMBL document CHEMBL4706518, “Discovery of MGS0274, an ester prodrug of a metabotropic glutamate receptor 2/3 agonist with improved oral bioavailability” (Eur J Med Chem, 2020).
Activity calls are given as the source filed them. The calls are words filed in the database; no cut-off is given here.

What was measured:
[1] = Oral bioavailability in monkey at 4.92 umol/kg measured up to 24 hrs by LC-MS/MS analysis; format: ADME, organism-based, Macaca mulatta; conditions: rhesus monkey, in vivo, at 4.92 µmol/kg
[2] = target: Metabotropic glutamate receptor 3 (Rattus norvegicus, UniProt P31422); experiment: Agonist activity at rat mGlu3 receptor expressed in CHO cell membranes by GTPgammaS binding assay; format: functional, Cell membrane
[3] = target: Metabotropic glutamate receptor 3 (Rattus norvegicus) (UniProt P31422); experiment: Agonist activity at rat mGlu3 receptor expressed in CHO cell membranes by GTPgammaS binding assay relative to control; format: functional; conditions: Cell membrane, filed as agonist
[4] = target: Metabotropic glutamate receptor 3 (Homo sapiens, UniProt Q14832); experiment: Antagonist activity at human mGlu3 receptor expressed in CHO cell membranes in presence of glutamate by GTPgammaS binding assay; format: functional, Cell membrane
[5] = target: T1, Metabotropic glutamate receptor 4 (Homo sapiens, UniProt Q14833); experiment: Agonist activity at human mGlu4 receptor expressed in CHO cell membranes by GTPgammaS binding assay; format: functional, Cell membrane
T1 sequence (Q14833 whole entry): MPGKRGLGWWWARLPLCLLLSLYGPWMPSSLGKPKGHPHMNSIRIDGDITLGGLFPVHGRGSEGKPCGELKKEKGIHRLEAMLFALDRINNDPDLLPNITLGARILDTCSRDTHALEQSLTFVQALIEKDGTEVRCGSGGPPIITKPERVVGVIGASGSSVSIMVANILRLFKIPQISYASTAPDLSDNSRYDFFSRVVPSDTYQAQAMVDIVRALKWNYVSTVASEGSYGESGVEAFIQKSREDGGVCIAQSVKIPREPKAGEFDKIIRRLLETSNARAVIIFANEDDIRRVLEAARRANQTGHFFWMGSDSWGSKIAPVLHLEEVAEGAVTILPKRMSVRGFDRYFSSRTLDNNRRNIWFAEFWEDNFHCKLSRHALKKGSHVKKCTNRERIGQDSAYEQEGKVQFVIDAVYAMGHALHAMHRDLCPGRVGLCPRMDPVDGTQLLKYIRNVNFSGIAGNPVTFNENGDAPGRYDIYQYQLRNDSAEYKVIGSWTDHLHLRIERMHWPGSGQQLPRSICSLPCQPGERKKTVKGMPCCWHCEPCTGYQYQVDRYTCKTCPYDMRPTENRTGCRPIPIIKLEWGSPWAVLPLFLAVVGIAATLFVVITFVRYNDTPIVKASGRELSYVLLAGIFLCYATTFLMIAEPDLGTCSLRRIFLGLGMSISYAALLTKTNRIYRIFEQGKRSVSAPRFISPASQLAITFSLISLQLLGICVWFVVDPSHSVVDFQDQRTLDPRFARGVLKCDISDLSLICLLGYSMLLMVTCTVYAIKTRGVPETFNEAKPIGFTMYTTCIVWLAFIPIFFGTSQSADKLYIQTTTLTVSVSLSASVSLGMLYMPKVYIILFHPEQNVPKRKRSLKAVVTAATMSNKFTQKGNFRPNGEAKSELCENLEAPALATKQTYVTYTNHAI

[6] = target: T2, Metabotropic glutamate receptor 1 (Homo sapiens, UniProt Q13255); experiment: Agonist activity at human mGlu1 receptor expressed in CHO cell membranes by intracellular Ca2+ assay; format: functional, Cell membrane
T2 sequence (Q13255 whole entry): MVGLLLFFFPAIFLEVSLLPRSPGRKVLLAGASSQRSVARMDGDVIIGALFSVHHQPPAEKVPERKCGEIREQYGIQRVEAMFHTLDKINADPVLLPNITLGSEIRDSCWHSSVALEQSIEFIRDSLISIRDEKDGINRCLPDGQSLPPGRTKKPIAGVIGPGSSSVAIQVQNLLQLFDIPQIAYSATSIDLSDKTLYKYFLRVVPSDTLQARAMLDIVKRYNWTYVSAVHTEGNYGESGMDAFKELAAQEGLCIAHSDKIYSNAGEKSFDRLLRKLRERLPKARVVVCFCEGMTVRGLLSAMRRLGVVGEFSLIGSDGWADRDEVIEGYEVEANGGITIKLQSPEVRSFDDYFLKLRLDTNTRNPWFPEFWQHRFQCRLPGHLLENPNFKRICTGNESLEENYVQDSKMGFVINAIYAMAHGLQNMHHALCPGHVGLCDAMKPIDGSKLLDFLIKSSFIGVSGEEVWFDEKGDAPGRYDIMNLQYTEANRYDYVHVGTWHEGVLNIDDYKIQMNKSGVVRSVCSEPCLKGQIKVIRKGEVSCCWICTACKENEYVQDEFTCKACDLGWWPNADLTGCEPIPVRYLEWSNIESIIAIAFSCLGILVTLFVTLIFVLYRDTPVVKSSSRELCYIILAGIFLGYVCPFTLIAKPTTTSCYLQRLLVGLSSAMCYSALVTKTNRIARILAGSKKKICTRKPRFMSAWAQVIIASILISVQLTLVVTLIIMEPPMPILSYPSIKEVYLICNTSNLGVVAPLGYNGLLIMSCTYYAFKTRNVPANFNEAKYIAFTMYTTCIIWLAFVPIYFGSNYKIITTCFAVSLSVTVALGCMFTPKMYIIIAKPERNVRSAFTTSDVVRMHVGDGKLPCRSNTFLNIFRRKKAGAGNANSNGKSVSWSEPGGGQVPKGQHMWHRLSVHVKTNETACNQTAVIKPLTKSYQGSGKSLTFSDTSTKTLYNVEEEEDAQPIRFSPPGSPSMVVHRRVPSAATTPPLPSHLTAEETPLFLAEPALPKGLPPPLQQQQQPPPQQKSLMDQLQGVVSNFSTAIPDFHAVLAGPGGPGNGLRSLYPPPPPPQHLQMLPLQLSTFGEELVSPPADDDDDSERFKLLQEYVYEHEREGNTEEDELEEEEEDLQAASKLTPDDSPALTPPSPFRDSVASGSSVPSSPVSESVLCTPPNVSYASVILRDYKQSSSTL

[7] = target: T3, Metabotropic glutamate receptor 6 (Homo sapiens, UniProt O15303); experiment: Agonist activity at human mGlu6 receptor expressed in HEK293T cell membranes by GTPgammaS binding assay; format: functional, Cell membrane
T3 sequence (O15303 whole entry): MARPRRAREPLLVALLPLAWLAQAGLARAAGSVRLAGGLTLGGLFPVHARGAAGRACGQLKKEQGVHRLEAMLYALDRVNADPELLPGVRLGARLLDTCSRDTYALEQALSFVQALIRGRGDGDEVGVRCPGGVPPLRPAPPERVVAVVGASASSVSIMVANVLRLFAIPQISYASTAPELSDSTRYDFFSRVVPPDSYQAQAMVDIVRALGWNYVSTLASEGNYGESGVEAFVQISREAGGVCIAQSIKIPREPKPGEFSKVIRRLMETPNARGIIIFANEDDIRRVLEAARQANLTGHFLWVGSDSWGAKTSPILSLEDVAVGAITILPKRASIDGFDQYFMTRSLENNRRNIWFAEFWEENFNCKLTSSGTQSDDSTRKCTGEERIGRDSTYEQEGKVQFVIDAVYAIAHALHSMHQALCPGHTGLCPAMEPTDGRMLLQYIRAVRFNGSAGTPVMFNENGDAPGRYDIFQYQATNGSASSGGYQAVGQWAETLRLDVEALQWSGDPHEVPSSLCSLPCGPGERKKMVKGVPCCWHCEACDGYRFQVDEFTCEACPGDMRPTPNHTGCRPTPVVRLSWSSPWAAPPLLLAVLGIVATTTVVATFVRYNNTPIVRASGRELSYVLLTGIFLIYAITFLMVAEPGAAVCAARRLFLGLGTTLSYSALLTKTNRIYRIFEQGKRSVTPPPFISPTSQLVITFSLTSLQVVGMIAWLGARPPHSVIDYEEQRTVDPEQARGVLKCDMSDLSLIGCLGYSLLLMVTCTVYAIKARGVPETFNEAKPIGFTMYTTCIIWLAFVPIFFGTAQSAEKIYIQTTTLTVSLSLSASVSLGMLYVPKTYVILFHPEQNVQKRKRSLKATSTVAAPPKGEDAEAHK

[8] = target: T4, Metabotropic glutamate receptor 8 (Homo sapiens, UniProt O00222); experiment: Agonist activity at human mGlu8 receptor expressed in CHO cell membranes by GTPgammaS binding assay; format: functional, Cell membrane
T4 sequence (O00222 whole entry): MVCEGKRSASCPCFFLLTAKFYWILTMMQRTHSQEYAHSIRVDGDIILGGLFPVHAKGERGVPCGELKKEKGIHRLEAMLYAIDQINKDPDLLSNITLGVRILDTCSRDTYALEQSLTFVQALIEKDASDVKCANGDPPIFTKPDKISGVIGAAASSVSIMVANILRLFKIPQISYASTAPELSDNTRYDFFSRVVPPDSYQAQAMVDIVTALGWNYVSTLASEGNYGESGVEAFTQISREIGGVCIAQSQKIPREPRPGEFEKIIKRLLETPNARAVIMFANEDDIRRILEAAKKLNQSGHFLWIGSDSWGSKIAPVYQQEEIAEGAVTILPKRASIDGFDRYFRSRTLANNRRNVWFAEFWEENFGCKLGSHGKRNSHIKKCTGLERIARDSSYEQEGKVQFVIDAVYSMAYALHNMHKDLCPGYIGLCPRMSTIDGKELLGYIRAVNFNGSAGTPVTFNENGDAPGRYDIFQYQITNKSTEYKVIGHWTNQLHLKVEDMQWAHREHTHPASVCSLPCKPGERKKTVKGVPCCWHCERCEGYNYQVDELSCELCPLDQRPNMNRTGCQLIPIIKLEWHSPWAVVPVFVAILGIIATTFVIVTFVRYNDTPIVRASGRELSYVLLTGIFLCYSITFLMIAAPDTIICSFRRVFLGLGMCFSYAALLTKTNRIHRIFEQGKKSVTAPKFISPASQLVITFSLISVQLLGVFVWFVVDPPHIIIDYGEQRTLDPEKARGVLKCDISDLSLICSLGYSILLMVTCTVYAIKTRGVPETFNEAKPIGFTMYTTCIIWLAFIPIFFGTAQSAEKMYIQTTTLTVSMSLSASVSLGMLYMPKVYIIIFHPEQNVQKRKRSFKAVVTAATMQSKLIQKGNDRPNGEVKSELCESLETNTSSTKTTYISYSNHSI

[9] = target: T2, Metabotropic glutamate receptor 1; experiment: Antagonist activity at human mGlu1 receptor expressed in CHO cell membranes in presence of glutamate by intracellular Ca2+ assay; format: functional, Cell membrane
[10] = target: T1, Metabotropic glutamate receptor 4; experiment: Antagonist activity at human mGlu4 receptor expressed in CHO cell membranes in presence of glutamate by GTPgammaS binding assay; format: functional, Cell membrane
[11] = target: T3, Metabotropic glutamate receptor 6; experiment: Antagonist activity at human mGlu6 receptor expressed in HEK293T cell membranes in presence of glutamate by GTPgammaS binding assay; format: functional, Cell membrane
[12] = target: T4, Metabotropic glutamate receptor 8; experiment: Antagonist activity at human mGlu8 receptor expressed in CHO cell membranes in presence of glutamate by GTPgammaS binding assay; format: functional, Cell membrane
[13] = target: Cannabinoid receptor 2 (Homo sapiens) (UniProt P34972); experiment: Binding affinity to CB2 (unknown origin) 10 umol/L by radioligand binding assay; conditions: dose 10.0 µmol/L
[14] = target: Histamine H1 receptor (Homo sapiens) (UniProt P35367); experiment: Binding affinity to H1 receptor (unknown origin) 10 umol/L by radioligand binding assay; conditions: dose 10.0 µmol/L
Chain of Histamine H1 receptor (Homo sapiens) (P35367 whole entry): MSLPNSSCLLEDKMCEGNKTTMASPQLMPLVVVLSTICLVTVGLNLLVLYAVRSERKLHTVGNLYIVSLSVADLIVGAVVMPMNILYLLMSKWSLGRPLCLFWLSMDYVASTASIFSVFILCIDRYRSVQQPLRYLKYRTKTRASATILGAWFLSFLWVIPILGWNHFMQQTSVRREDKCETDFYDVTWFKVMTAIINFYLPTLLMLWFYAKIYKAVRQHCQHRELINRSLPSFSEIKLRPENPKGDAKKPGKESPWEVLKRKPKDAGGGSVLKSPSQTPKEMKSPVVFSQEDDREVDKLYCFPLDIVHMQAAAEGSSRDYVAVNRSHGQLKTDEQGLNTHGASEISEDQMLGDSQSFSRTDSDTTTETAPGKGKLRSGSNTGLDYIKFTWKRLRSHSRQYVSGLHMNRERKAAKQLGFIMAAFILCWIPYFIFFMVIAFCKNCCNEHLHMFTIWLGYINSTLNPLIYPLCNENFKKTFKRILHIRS

[15] = organism: Homo sapiens; experiment: Binding affinity to Imidazole receptor (unknown origin) 10 umol/L by radioligand binding assay; conditions: dose 10.0 µmol/L
[16] = target: Delta-type opioid receptor (Homo sapiens) (UniProt P41143); experiment: Binding affinity to delta opioid receptor (unknown origin) 10 umol/L by radioligand binding assay; conditions: dose 10.0 µmol/L
Chain of Delta-type opioid receptor (Homo sapiens) (P41143 whole entry): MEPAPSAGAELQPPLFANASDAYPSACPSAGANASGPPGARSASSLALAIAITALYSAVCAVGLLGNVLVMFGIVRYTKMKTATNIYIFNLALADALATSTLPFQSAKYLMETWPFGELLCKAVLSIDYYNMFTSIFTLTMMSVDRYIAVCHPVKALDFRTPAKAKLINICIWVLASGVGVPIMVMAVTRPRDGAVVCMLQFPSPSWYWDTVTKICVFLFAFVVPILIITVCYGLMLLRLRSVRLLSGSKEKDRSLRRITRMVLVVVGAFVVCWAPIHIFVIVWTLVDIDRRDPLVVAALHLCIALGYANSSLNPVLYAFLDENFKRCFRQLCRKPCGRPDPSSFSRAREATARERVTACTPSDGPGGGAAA

[17] = target: Sodium-dependent serotonin transporter (Homo sapiens) (UniProt P31645); experiment: Inhibition of serotonin transporter (unknown origin) 10 umol/L by radioligand binding assay relative to control; conditions: dose 10.0 µmol/L
[18] = target: Metabotropic glutamate receptor 2 (Homo sapiens, UniProt Q14416); experiment: Agonist activity at human mGlu2 receptor expressed in CHO cell membranes by GTPgammaS binding assay; format: functional, Cell membrane

In the case of `N[C@]1(C(=O)O)[C@H]2[C@@H](C[C@@H]1F)[C@@H]2C(=O)O`, the bioavailability [1] is reported as 4%, the EC50 [2] is reported as 0.0969 µM and the Emax [3] is reported as 99.7%. The IC50 [4] was greater than 30 µM, the EC50 [5] was greater than 30 µM and the EC50 [6] was greater than 30 µM. The EC50 [7] was greater than 30 µM, the EC50 [8] was greater than 30 µM and the IC50 [9] was greater than 30 µM. The IC50 [10] was greater than 30 µM, the IC50 [11] was greater than 30 µM and the IC50 [12] was greater than 30 µM. The Activity [13] was “inactive”, the Activity [14] was “inactive” and the Activity [15] was “inactive”. The Activity [16] was “inactive” and the inhibition [17] was “inactive”.

For `CC(C)[C@@H]1CC[C@@H](C)C[C@H]1OC(=O)O[C@@H](C)OC(=O)[C@H]1[C@@H]2C[C@H](F)[C@@](N)(C(=O)O)[C@@H]21`, the EC50 [18] was greater than 30 µM, the Activity [13] was “inactive” and the Activity [14] was “inactive”. For the same compound, the Activity [15] was “inactive”, the Activity [16] was “inactive” and the inhibition [17] was 76%.
